Measurements taken from a melting point compilation (Tetko et al.; mined from patent text by program, amines drawn as free bases though some values may be those of a salt).

Question: With `N#Cc1ccc(Nn2cnnc2)cc1-c1ccc(OCc2ccccc2)cc1` as the compound, how does the melting point read?
Answer: 180 to 182 °C

Question: Which melting point does the source give for `Cc1nccc(O)c1[N+](=O)[O-]` here?
Answer: 140 °C

Question: Which melting point does the source give for `CCSc1cc2c(cc1F)C(=O)C(=O)N2` here?
Answer: 215 °C

Question: With `NS(=O)(=O)c1ccc(N2CC(CO)OC2=O)cc1` (stereo not given) as the compound, how does the melting point read?
Answer: 154 to 156 °C

Question: With `COCCOc1cnn(-c2nc3ccccc3c(=O)[nH]2)c1` as the compound, how does the melting point read?
Answer: 119 to 124 °C

Question: Which melting point does the source give for `COC(=O)c1ccc2c(c1)C(=O)C(CC=O)C2` (racemic) here?
Answer: 92 °C

Question: For `CCCCCSc1ccc(CN(O)C(N)=S)s1`, which melting point is on record?
Answer: 112 to 114 °C

Question: Which melting point does the source give for `COc1cccc(-c2nc(Nc3ccc(Cl)cc3)c3ccccc3n2)n1` here?
Answer: 157 to 160 °C

Question: For `CC1(C)CC(=O)OC(NCCCCN2CCN(c3ncccn3)CC2)N1` (stereo not given), which melting point is on record?
Answer: 124 to 126 °C

Question: With `CCN(c1nc(-c2c(F)cccc2OC)c2[nH]ncc2n1)c1ccc(C(F)(F)F)cc1Cl` as the compound, how does the melting point read?
Answer: 184 to 185 °C

Question: Which melting point does the source give for `NC(=O)NC1CCC(Cl)CC1` (stereo not given) here?
Answer: 177 to 178 °C

Question: With `COC(=O)CC=CC=CC=CC=CC=Cc1ccsc1` as the compound, how does the melting point read?
Answer: 206 to 208 °C

Question: For `N#CN=C(Nc1cccnc1)NC1CC1`, which melting point is on record?
Answer: 171 to 172 °C

Question: With `COC(=O)CC1(O)C=CC(=O)C=C1` as the compound, how does the melting point read?
Answer: 53 to 54 °C

Question: Which melting point does the source give for `O=C(O)c1c[nH]c2c(OCC3CN(Cc4ccccc4)CCN3Cc3ccccc3)c(F)c(F)cc2c1=O` (stereo not given) here?
Answer: 158 to 159 °C

Question: For `CN(C#N)C(=O)CCCCC(=O)N(C)C#N`, which melting point is on record?
Answer: 86.1 to 87.8 °C

Question: For `COc1cc(-c2cnc3[nH]cc(C(=O)N4CCCC4)c3n2)cc(OC)c1OC`, which melting point is on record?
Answer: 210 to 212 °C

Question: With `Cn1cc(-c2cc3cccnc3[nH]2)c2cc(OCCO)ccc21` as the compound, how does the melting point read?
Answer: 209 to 210 °C

Question: For `CC(=O)Nc1ccc(CC2CCN(CCS(=O)c3ccc4[nH]c(=O)oc4c3)CC2)cc1` (stereo not given), which melting point is on record?
Answer: 104 to 105 °C

Question: Which melting point does the source give for `CC(C)C(=S)Nc1ccc([N+](=O)[O-])c(C(F)(F)F)c1` here?
Answer: 74 to 76 °C

Question: Which melting point does the source give for `CNc1ccc(C(=O)OC)c(F)n1` here?
Answer: 156 to 159 °C

Question: For `COC(=O)c1cc2c(cc1N)OCO2`, which melting point is on record?
Answer: 107 to 108 °C

Question: Which melting point does the source give for `CC(=O)Nc1c(OC(C)=O)cc2c(c1[N+](=O)[O-])CCC2` here?
Answer: 168 to 170 °C

Question: For `N#Cc1ccc2c(c1)OCC21C(=O)N(Cc2ccccn2)c2ccccc21` (stereo not given), which melting point is on record?
Answer: 151 to 153 °C

Question: Which melting point does the source give for `CSc1cc(C)nc(SC)c1NC(=O)CCCCSc1nc2cccc(C(F)(F)F)c2o1` here?
Answer: 179 to 180 °C

Question: With `Cc1cccc(NC(=O)NCc2cccc3c2C(=O)N(C2CCC(=O)NC2=O)C3=O)c1` (stereo not given) as the compound, how does the melting point read?
Answer: > 260 °C

Question: Which melting point does the source give for `CC(=O)ON(C(=O)NN(C)C)C1c2ccccc2Oc2ccccc21` here?
Answer: 120 to 121 °C

Question: For `COc1cc2cccnc2c(N2CCN([C@H]3CC[C@@H](c4cn(C)c5ccc(C#N)cc54)CC3)CC2)n1`, which melting point is on record?
Answer: 230 to 233 °C

Question: Which melting point does the source give for `O=C(Nc1ccc(C(F)(F)F)cc1)Nc1ccc(S(=O)(=O)Nc2ccc(Cl)cc2)cc1` here?
Answer: 252 to 257 °C

Question: Which melting point does the source give for `COc1ccc(C2=NN(C3CCN(C(=O)NC(C)(C)C)CC3)C(=O)[C@H]3CC=CC[C@@H]23)c2c1OC(C)(C)C2` (relative stereo) here?
Answer: 145 to 147 °C

Question: Which melting point does the source give for `COc1c(N2CCNCC2)c(F)c(N)c2c(=O)c(C(=O)O)cn(C3CC3)c12` here?
Answer: 271 to 273 °C

Question: With `CNC(=O)c1ccccc1Nc1nc(Nc2cccc3c2N(C)CCNC3=O)ncc1Cl` as the compound, how does the melting point read?
Answer: 282 to 284 °C

Question: With `O=C(Cc1ccncc1)NC(Cc1ccc(Cl)c(Cl)c1)C(=O)CCc1cc(C(F)(F)F)cc(C(F)(F)F)c1` (stereo not given) as the compound, how does the melting point read?
Answer: 142 to 144 °C

Question: For `CC(Br)c1ccc(-c2ccc(C(=O)c3ccccc3)cc2)cc1` (stereo not given), which melting point is on record?
Answer: 132 to 134 °C

Question: With `COc1nc(NCCCN2CCOCC2)nc(OC)c1NC(=O)c1ccc(Oc2cncc([Si](C)(C)C)c2)o1` as the compound, how does the melting point read?
Answer: 80 to 82 °C

Question: With `COc1ccc(N2CCN(c3c(C)c(C)c4c(c3C)CC(C)(CN3CCC(=O)CC3)O4)CC2)cc1` (stereo not given) as the compound, how does the melting point read?
Answer: 123 to 127 °C

Question: For `C/C(=C(\C#N)C(N)=S)N1CCCCCC1`, which melting point is on record?
Answer: 158 to 161 °C

Question: With `CCCCOc1cc(/C=C(\OCC)C(=O)O)ccc1OCCc1ccc(OS(C)(=O)=O)cc1OC` as the compound, how does the melting point read?
Answer: 112 °C

Question: With `Cn1c(C(F)(F)F)cc(=O)n(-c2cc(Oc3ncccc3[N+](=O)[O-])c(Cl)cc2F)c1=O` as the compound, how does the melting point read?
Answer: 177 to 179 °C

Question: Which melting point does the source give for `O=c1c2c(Cl)cc(Cl)cc2n(Cc2ccccc2)c(=O)n1CCc1ccccc1` here?
Answer: 169 to 171 °C

Question: Which melting point does the source give for `COc1ccccc1NC(=O)c1ccc(COC2CCCCO2)cc1` (stereo not given) here?
Answer: 67 to 70 °C

Question: For `COCC(C)Oc1cc(Oc2ccc(S(C)(=O)=O)nc2)cc2cc(C3=NCC(CCO)S3)[nH]c12` (stereo not given), which melting point is on record?
Answer: 138 to 139 °C

Question: With `Cc1cc(C)cc(OC(=O)C(Cl)c2ccccc2)c1` (stereo not given) as the compound, how does the melting point read?
Answer: 79 °C

Question: Which melting point does the source give for `O=C1Cc2cc(F)ccc2N1CCCl` here?
Answer: 127 °C

Question: Which melting point does the source give for `O=C(O)c1ccc2occ(-c3ccccc3)c2c1` here?
Answer: 205 to 209 °C

Question: For `COc1ccc(OC)c(SCCCCC#N)c1`, which melting point is on record?
Answer: 64 to 66 °C

Question: Which melting point does the source give for `c1cc(-c2ccc(N3CCNCC3)nc2)nc(Nc2ccc3cc[nH]c3c2)n1` here?
Answer: 201 to 203 °C

Question: For `CC(C)c1nc2ccc(C=O)cc2nc1C(C)C`, which melting point is on record?
Answer: 53 to 55 °C

Question: With `CCCc1c(Cc2ccccc2C(=O)O)cccc1OCCCOc1cc(O)c(-c2ccc(F)cc2)cc1CC` as the compound, how does the melting point read?
Answer: 150 to 151 °C

Question: Which melting point does the source give for `Fc1c(OCc2ccccc2)ccc(-c2ncc(Br)cn2)c1F` here?
Answer: 138 °C

Question: With `Cn1c2c(c3cc(OCc4ccccc4)ccc31)CC(CCN)C2` (stereo not given) as the compound, how does the melting point read?
Answer: 72 to 75 °C

Question: For `CN1CCc2cc([N+](=O)[O-])c(O)cc2C(c2ccc3c(c2)CCC3)C1` (stereo not given), which melting point is on record?
Answer: 58 to 63 °C

Question: With `C#CCN1C(=O)COc2cc(F)c(-c3ccc(C(F)(F)F)n(C)c3=O)cc21` as the compound, how does the melting point read?
Answer: 166 to 168 °C

Question: With `Cc1nc2cc(-c3ccc4c(c3)C=C(C(=O)Nc3ccc(CN(C)C5CCOCC5)cc3)CCS4(=O)=O)ccc2o1` as the compound, how does the melting point read?
Answer: 236 to 240 °C

Question: Which melting point does the source give for `COc1ccc(CN2C(=O)[C@@H](N3C(=O)c4ccccc4C3=O)[C@H]2CCc2ccccc2)c(OC)c1` (relative stereo) here?
Answer: 148 to 150 °C

Question: With `CCCCCS(=O)(=O)NC(=O)/C=C/c1ccc(OCCOC)cc1OCC1CCCCC1` as the compound, how does the melting point read?
Answer: 97.5 to 98.3 °C

Question: For `CCC12CC3CC(CC(C)(C3)C1)C2`, which melting point is on record?
Answer: < 80 °C

Question: For `C=CCc1ccc(O)c(-c2cc(CC=C)ccc2O)c1`, which melting point is on record?
Answer: 101 to 103 °C

Question: Which melting point does the source give for `O=S(=O)(NCC(O)CN1c2ccccc2CCc2ccccc21)c1ccc(OC(F)(F)F)cc1` (stereo not given) here?
Answer: 102 to 103 °C

Question: For `CCNS(=O)(=O)CC(=O)C1=CNC(C)=C(C(=O)OC)C1c1cccc([N+](=O)[O-])c1` (stereo not given), which melting point is on record?
Answer: 185 to 187 °C

Question: With `O=C(O)c1cc(S(=O)(=O)Oc2ccc(-c3ccc(-c4c(Cc5ccccc5)oc5ccccc45)cc3)cc2)ccc1O` as the compound, how does the melting point read?
Answer: 171 to 173 °C

Question: Which melting point does the source give for `CCOC(=O)c1cn2c3c(cc(CN4CCOCC4)cc3c1=O)OCC2` here?
Answer: 216 to 218 °C

Question: For `CCC1CC2CC(=O)OC3OC4(C)CCC(C1C)C23OO4` (single isomer, unassigned; (+)), which melting point is on record?
Answer: 155 to 157 °C

Question: With `O=C(CC1C2CC3CC(C2)CC1C3)Nc1cccc2[nH]ccc12` (stereo not given) as the compound, how does the melting point read?
Answer: 206 to 208 °C

Question: Which melting point does the source give for `COC1C(O)C(CO)OC1n1cnc2c(=S)n(C)cnc21` (stereo not given) here?
Answer: 182 to 187 °C

Question: For `Cc1cc(OCc2ccc(-c3ccc(OC(F)(F)F)cc3)nc2C2CC2)ccc1OC(C)(C)C(=O)O`, which melting point is on record?
Answer: 131 to 133 °C

Question: With `CC(C)(C)OC(=O)Nc1cccc(C(=O)NCCC(=O)OCc2ccccc2)c1` as the compound, how does the melting point read?
Answer: 130 to 131 °C

Question: For `CN(C)c1ccc(C#N)nn1`, which melting point is on record?
Answer: 150 °C

Question: With `CC(C)(O)CC1NC(=O)c2ccccc21` (stereo not given) as the compound, how does the melting point read?
Answer: 122 to 123 °C

Question: With `CCOC(=O)c1cccc(C(=O)c2cccnc2-c2ccc(S(C)(=O)=O)cc2)c1` as the compound, how does the melting point read?
Answer: 125 to 132 °C
